Measurements: article PMC6627331, “Identification of Small Molecule Inhibitors of Staphylococcus aureus RnpA” (Antibiotics, 2019)
Converted amounts (≈) assume the structure as drawn. Read-outs that look alike come from different tables or passages of the source.

Key:
S. aureus UAMS-1 = assay: Minimum inhibitory concentration (MIC) testing; assay type: cell-based, Staphylococcus aureus
Description: Minimum inhibitory concentration (MIC) testing was performed using to Clinical & Laboratory Standards Institute (CLSI) guidelines. Accordingly, individual wells of a 96-well microtiter plate were inoculated with 10^4 colony forming units (CFU) of S. aureus UAMS-1 containing two-fold increasing concentrations (0 to 256 μg·mL^−1) of the indicated antibiotic or putative RnpA inhibitor compound, and incubated at 37 °C for 16 h in MHB. The MIC was defined as the lowest concentration of compound in which there was no visible bacterial growth in the well.

[1] = tested on: S. aureus RN4220 pML100::rnpA-KD; assay: Cellular RnpA depletion hypersusceptibility growth curve; assay type: cell-based, Staphylococcus aureus; conditions: […] MIC JC2 or 0.5× MIC RNPA2000
Description: 100 μL of each culture was transferred to a 96 well flat bottom plate in duplicate and growth monitored by OD600 reading every 30 min over 8 h at 37 °C. Hypersusceptibility growth curves were averaged from two biological replicates in technical duplicate.

Galleria mellonella = Galleria mellonella single tolerated dose (uninfected worms); assay type: in vivo; conditions: single dose 100 mg·kg^−1, 16 h
Description: An overnight culture of S. aureus strain UAMS-1 was used to inoculate (1:100 dilution) 25 mL of fresh MH medium and growth at 37 °C on a rotary shaker at 225 rpm to exponential phase (~1 × 10^8 CFU mL^−1). Cultures were pelleted by centrifugation, washed with phosphate buffered saline (PBS), and re-suspended at ~1 × 10^7 CFU·mL^−1 in fresh PBS. G. mellonella larvae weighing 150–250 mg were inoculated with 5 µL of S. aureus into the last left proleg using a 10 µL Hamilton syringe. About 1 h after inoculation, one group of worms was treated with 2 µL DMSO as infected negative control; one group was treated with 2 µL JC2 compound at 100 mg/kg dose; another group was treated with 2 µL vancomycin at 100 mg/kg dose as standard-of-care comparison. Treatments were administered in the same manner as infection, except that each injection was in the next left proleg moving towards the head of the worm. […] In addition to the mock or compound treatment of infected larvae, a group of non-infected worm injected with DMSO or corresponding compounds were used to monitor the impact of physical trauma as well as observe toxicity associated with compound treatment.

## CC1CCCCN1C(=O)Nc1cc(Cl)cc(Cl)c1 (centres unmarked) [JC2]
S. aureus UAMS-1; S. aureus UAMS-1, 16 h in MHB, listed as 9049625
  MIC: 1 µg/mL (≈ 3.48 µM)
S. aureus UAMS-1; Staphylococcus aureus, UAMS1, 16 h, Table S1, mupirocin synergy screening initial hits, read-out: MIC
  MIC: 1 µg/mL
S. aureus UAMS-1; Staphylococcus aureus, UAMS1, SAR figures, S. aureus UAMS-1, read-out: MIC
  MIC: 0.5 µg/mL (≈ 1.74 µM)
[1]
  growth of RnpA-depleted cells (RnpA-KD) versus vector cells: displayed a growth defect
Galleria mellonella
  mortality rate of uninfected worms: did not display any treatment-associated lethality
